Assay results: patent publication US9533019B1, “Calotropis procera extracts as anti-ulcerative colitis agents” (KING SAUD UNIVERSITY, priority 2016, dated 2017)
Marks after values point to notes of the source that are not given here.

Test system: acetic acid-induced colitis in male Wistar rats
Assay: Acetic acid-induced ulcerative colitis
Type: in vivo
Description: Male Wistar rats were divided into 9 experimental groups, each of 6 animals. Rats of groups 1 and 2 received the vehicle (5 mL/kg) and served as normal control and control colitis groups, and Group 3 was administered dexamethasone (0.1 mg/kg) and served as Reference Drug group. […] All medications were administered orally, once daily for 5 consecutive days after colitis induction. The first doses were administrated in all groups one hour after colitis induction. The colonic lesions were assessed by weighing the colon specimens and the wet weight/length ratio was calculated for all the rats. The specimens were examined under a dissecting microscope and the lesion scores were quantified by scoring system (0-5). Ulcer area was measured using a plane glass square. Each cell on the glass square was 1 mm^2 in area, and the number of cells was counted and the ulcer area was determined for each colon.
The Ulcer index (UI) was measured by summing the lesion score and the ulcer area for each colon specimen. The curative ratio was determined according to formula (1) below: […]
The inflammatory changes of the intestinal tract were associated with a significant increase of wet weight/length of the colon specimens as an indicator of inflammation. […] The colitis was induced by slowly infusion of 2 mL (4%, v/v) acetic acid in saline into the colon through the catheter.

[1] = 50 mg/kg orally once daily for 5 days after colitis induction, n=6

C[C@]12C=CC(=O)C=C1CC[C@@H]1[C@@H]2[C@@H](O)C[C@@]2(C)[C@H]1CC[C@]2(O)C(=O)CO [Prednisolone]
percent protection of control colitis (50 mg/kg orally for 5 days): 54.9% | Lesion score (0-5) [1]: 2.22 ± 0.12 | Ulcer area [1]: 2.53 ± 0.15* cm^2 | Ulcer index [1]: 4.65 ± 0.27 | Wet W/L (colon wet weight/length, 50 mg/kg orally once daily for 5 days after colitis induction, n=6): 0.46 ± 0.02 g/cm
